The values below come from US8884030B2, “Inhibitors of Flaviviridae viruses” (priority 2010, dated 2014).

The structures appear in SMILES notation.

The test system of the test is human hepatoma Huh-7 cell line harboring a HCV replicon. The test can be described thus: HCV replicon assay (inhibition of viral replication, luciferase). The note with it: Hepatitis C virus, 72 h; 2 μM; Huh-7 HCV replicon cells, 3 days incubation; inhibition of viral replication; read-out: % inhibition at 2 μM. The format is cell-based. The procedure, abridged: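 Huh-7 replicon cells (1600/well) exposed 3 days at 37 °C to 10-point 3-fold dilutions, 0.44% DMSO. Replication measured by Dual-Glo luciferase, background from ITMN-191 wells; cytotoxicity by calcein AM. EC50/CC50 from Hill fit; % inhibition at fixed concentration derivable from fit.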
One may read the inhibition as the drop in the measured response relative to a control, in per cent. As for `CC(C)(C)C#Cc1cc(N(C(=O)[C@H]2CC[C@H](C)CC2)C2CCN(C(=O)O[C@H]3CO[C@H]4OCC[C@H]43)CC2)c(C(=O)O)s1` [Compound 36, 4-[[2-carboxy-5-(3,3-dimethyl-but-1-ynyl)-thiophen-3-yl]-(4-methyl-cyclohexanecarbonyl)-amino]-piperidine-1-carboxylic acid hexahydro-furo[2,3-b]furan-3-(R)-yl ester], the inhibition at 2 µM is 100%.
Then `CC(C)(C)C#Cc1cc(N(C(=O)[C@H]2CC[C@H](C)CC2)[C@H]2CCN(C(=O)O[C@@H]3CCCN(C(=O)OC(C)(C)C)C3)C2)c(C(=O)O)s1` [Compound 37, 3-(R)-{3-(S)-[[2-carboxy-5-(3,3-dimethyl-but-1-ynyl)-thiophen-3-yl]-(4-trans-methyl-cyclohexanecarbonyl)-amino]-pyrrolidine-1-carbonyloxy}-piperidine-1-carboxylic acid tert-butyl ester], with 99.6%; and `CON=C1CCC(N(C(=O)C2CCC(C)CC2)c2cc(C#CC(C)(C)C)sc2C(=O)O)CC1` (stereo not drawn) [Compound 120, 5-(3,3-Dimethylbut-1-ynyl)-3-(N-(4-(methoxyimino)cyclohexyl)-4-methylcyclohexanecarboxamido)thiophene-2-carboxylic acid], with 99.9%; and `CC(C)(C)C#Cc1cc(N(C(=O)[C@H]2CC[C@H](C)CC2)[C@H]2CCN(C(=O)OC3(C)CCNC3)C2)c(C(=O)O)s1` (stereo partly drawn) [Compound 68, 3-(S)-[[2-Carboxy-5-(3,3-dimethyl-but-1-ynyl)-thiophen-3-yl]-(trans-4-methylcyclohexanecarbonyl)-amino]-pyrrolidine-1-carbocylic-acid-3-methyl-pyrrolidin-3-yl-ester], with 98.5%.
In the case of `CC(C)(C)C#Cc1cc(N(C(=O)[C@H]2CC[C@H](C)CC2)C2CCN(C(=O)O[C@@H]3CNC(=O)C3)CC2)c(C(=O)O)s1` [Compound 56, 4-[[2-carboxy-5-(3,3-dimethyl-but-1-ynyl)-thiophen-3-yl]-(4-trans-methyl-cyclohexanecarbonyl)-amino]-piperidine-1-carboxylic acid 5-oxo-pyrrolidin-3-(S)-yl ester], the inhibition at 2 µM was 92.8%.
On to `CN(NC1CCC(N(c2cc(C#CC(C)(C)C)sc2C(=O)O)C(=O)[C@H]2CC[C@H](C)CC2)CC1)c1cnccn1` (stereo partly drawn) [Compound 80, 5-(3,3-Dimethyl-but-1-ynyl)-3-{(4-methyl-cyclohexanecarbonyl)-[4-(N′-methyl-N′-pyrazin-2-yl-hydrazino)-cyclohexyl]-amino}-thiophene-2-carboxylic acid], for which the inhibition at 2 µM was found to be 99.8%.
For `CC(C)(C)C#Cc1cc(N(C(=O)[C@H]2CC[C@H](C)CC2)[C@H]2CCN(C(=O)O[C@@H]3CCOC3)C2)c(C(=O)O)s1` [Compound 42, 3-(S)-[[2-carboxy-5-(3,3-dimethyl-but-1-ynyl)-thiophen-3-yl]-(4-trans-methyl-cyclohexanecarbonyl)-amino]-pyrrolidine-1-carboxylic acid tetrahydro-furan-3-(R)-yl ester] the value was 99.9%; for `CC1CCC(C(=O)N(c2cc(C#CC(C)(C)C)sc2C(=O)O)C2CCC(NN(C)C(=O)OC3CCOCC3)CC2)CC1` (stereo not drawn) [Compound 217, 5-(3,3-dimethyl-but-1-ynyl)-3-((4-methyl-cyclohexanecarbonyl)-{4-[N′-methyl-N′-(tetrahydro-pyran-4-yloxycarbonyl)-hydrazino]-cyclohexyl}-amino)-thiophene-2-carboxylic acid], 100%.
Then `CC(C)(C)C#Cc1cc(N(C(=O)[C@H]2CC[C@H](C)CC2)[C@H]2CCN(C(=O)OC3(C)CN(C(=O)OC(C)(C)C)C3)C2)c(C(=O)O)s1` [Compound 69, 3-[[2-carboxy-5-(3,3-dimethyl-but-1-ynyl)-thiophen-3-yl]-(trans-4-methyl-cyclohexanecarbonyl)-3-(S)-amino]-pyrrolidine-1-carboxylic acid 1-tert-butoxycarbonyl-3-methyl-azetidin-3-yl ester], with 99.5%.
Take `CC(C)(C)C#Cc1cc(N(C(=O)[C@H]2CC[C@H](C)CC2)C2CCC(NC(=O)OC3CCNCC3)CC2)c(C(=O)O)s1` (stereo partly drawn) [Compound 45, 5-(3,3-dimethyl-but-1-ynyl)-3-{(4-trans-methyl-cyclohexanecarbonyl)-[4-(piperidin-4-yloxycarbonylamino)-cyclohexyl]-amino}-thiophene-2-carboxylic acid]: the inhibition at 2 µM was 100%.
Then `CC(C)(C)C#Cc1cc(N(C(=O)[C@H]2CC[C@H](C)CC2)C2CCN(C(=O)OC3CCNCC3)CC2)c(C(=O)O)s1` [Compound 31, 4-[[2-carboxy-5-(3,3-dimethyl-but-1-ynyl)-thiophen-3-yl]-(4-trans-methyl-cyclohexanecarbonyl)-amino]-piperidine-1-carboxylic acid piperidin-4-yl ester], with 93.1%; and `CC(C)(C)C#Cc1cc(N(C(=O)[C@H]2CC[C@H](C)CC2)C2CCN(C(=O)O[C@H]3CNC(=O)C3)CC2)c(C(=O)O)s1` [Compound 55, 4-[[2-carboxy-5-(3,3-dimethyl-but-1-ynyl)-thiophen-3-yl]-(4-trans-methyl-cyclohexanecarbonyl)-amino]-piperidine-1-carboxylic acid 5-oxo-pyrrolidin-3-(R)-yl ester], with 87.9%.
Take `CC(C)(C)C#Cc1cc(N(C(=O)[C@H]2CC[C@H](C)CC2)C2CCC(=NOCC(=O)O)CC2)c(C(=O)O)s1` (stereo partly drawn) [Compound 115, 3-(N-(4-(Carboxymethoxyimino)cyclohexyl)-4-methylcyclohexanecarboxamido)-5-(3,3-dimethylbut-1-ynyl)thiophene-2-carboxylic acid]: the inhibition at 2 µM is 99.8%.
Then `CC1CCC(C(=O)N(c2cc(C#CC(C)(C)C)sc2C(=O)O)C2CCN(C(=O)c3cccnc3)C2)CC1` (stereo not drawn) [Compound 142, 5-(3,3-Dimethyl-but-1-ynyl)-3-{(4-methyl-cyclohexanecarbonyl)-[1-(pyridine-3-carbonyl)-pyrrolidin-3-yl]-amino}-thiophene-2-carboxylic acid], with 99.6%; and `CC(C)(C)C#Cc1cc(N(C(=O)[C@H]2CC[C@H](C)CC2)[C@H]2CCN(C(=O)O[C@H]3CNC(=O)C3)C2)c(C(=O)O)s1` [Compound 34, 3-(S)-[[2-carboxy-5-(3,3-dimethyl-but-1-ynyl)-thiophen-3-yl]-(4-trans-methyl-cyclohexanecarbonyl)-amino]-pyrrolidine-1-carboxylic acid 5-oxo-pyrrolidin-3-(R)-yl ester], with 97.8%.
For the compound `CC1CCC(C(=O)N(c2cc(C#CC(C)(C)C)sc2C(=O)O)N(C)C2CCNCC2)CC1` (stereo not drawn) [Compound 128, 5-(3,3-dimethyl-but-1-ynyl)-3-[N′-methyl-N-(4-methyl-cyclohexanecarbonyl)-N′-piperidin-4-yl-hydrazino]-thiophene-2-carboxylic acid], the inhibition at 2 µM is 99.8%.
Then `CC(C)(C)C#Cc1cc(N(C(=O)[C@H]2CC[C@H](C)CC2)C2CCC(NC(=O)O[C@H]3CO[C@H]4OCC[C@H]43)CC2)c(C(=O)O)s1` (stereo partly drawn) [Compound 66, 5-(3,3-Dimethyl-but-ynyl)-3-[[4-(hexahydro-furo[2,3-b]furan-3-yloxycarbonylamino)-cyclohexyl]-(trans-4-methyl-cyclohexanecarbonyl)-amino]-thiophene-2-carboxylic acid], with 99.9%; and `CC(C)(C)C#Cc1cc(N(C(=O)[C@H]2CC[C@H](C)CC2)C2CCN(C(=O)OC3CCOCC3)CC2)c(C(=O)O)s1` [Compound 54, 4-[[2-carboxy-5-(3,3-dimethyl-but-1-ynyl)-thiophen-3-yl]-(4-trans-methyl-cyclohexanecarbonyl)-amino]-piperidine-1-carboxylic acid tetrahydro-pyran-4-yl ester], with 99.8%; and `CC1CCC(C(=O)N(c2cc(C#CC(C)(C)C)sc2C(=O)O)C2CCC(=NOCc3cccnc3)CC2)CC1` (stereo not drawn) [Compound 118, 5-(3,3-Dimethylbut-1-ynyl)-3-(4-methyl-N-(4-(pyridin-3-ylmethoxyimino)cyclohexyl)cyclohexanecarboxamido)thiophene-2-carboxylic acid], with 100%.
On to `CC(C)(C)C#Cc1cc(N(C(=O)[C@H]2CC[C@H](C)CC2)C2CCC(NC(=O)OC3CCS(=O)(=O)C3)CC2)c(C(=O)O)s1` (stereo partly drawn) [Compound 77, 5-(3,3-dimethyl-but-1-ynyl)-3-[[4-(1,1-dioxo-tetrahydro-1λ^6-thiophen-3-yloxycarbonylamino)-cyclohexyl]-(trans-4-methylcyclohexanecarbonyl)-amino]-thiophene-2-carboxylic acid], for which the inhibition at 2 µM was found to be 99.9%.
In the case of `CC(C)(C)C#Cc1cc(N(C(=O)[C@H]2CC[C@H](C)CC2)C2CCC(=NOCc3ccccn3)CC2)c(C(=O)O)s1` (stereo partly drawn) [Compound 112, 5-(3,3-Dimethyl-but-1-ynyl)-3-{(4-trans-methyl-cyclohexanecarbonyl)-[4-(pyridin-2-ylmethoxyimino)-cyclohexyl]-amino}-thiophene-2-carboxylic acid], the inhibition at 2 µM turned out to be 99.9%.
Take `CC1CCC(C(=O)N(c2cc(C#CC(C)(C)C)sc2C(=O)O)N(C)C2CCN(C(=O)OC(C)(C)C)CC2)CC1` (stereo not drawn) [Compound 127, 4-[N′-[2-carboxy-5-(3,3-dimethyl-but-1-ynyl)-thiophen-3-yl]-N-methyl-N′-(4-methyl-cyclohexanecarbonyl)-hydrazino]-piperidine-1-carboxylic acid tert-butyl ester]: the inhibition at 2 µM was 98.3%.
Take `CC1CCC(C(=O)N(NCCOc2cccnc2)c2cc(C#CC(C)(C)C)sc2C(=O)O)CC1` (stereo not drawn) [Compound 133, 5-(3,3-dimethyl-but-1-ynyl)-3-{N-(4-methyl-cyclohexanecarbonyl)-N′-[2-(pyridin-3-yloxy)-ethyl]-hydrazino}-thiophene-2-carboxylic acid]: the inhibition at 2 µM was 96.7%.
Then `CC(C)(C)C#Cc1cc(N(C(=O)[C@H]2CC[C@H](C)CC2)C2CCC(NC(=O)OC3(C)CCN(C(=O)OC(C)(C)C)C3)CC2)c(C(=O)O)s1` (stereo partly drawn) [Compound 75], with 97.5%.
